Test results as given in ChEMBL document CHEMBL3421568, “Discovery and preliminary evaluation of 2-aminobenzamide and hydroxamate derivatives containing 1,2,4-oxadiazole moiety as potent histone deacetylase inhibitors” (Eur J Med Chem, 2015).

Columns and labels:
[1] = tested on: A549; assay: Antiproliferative activity against human A549 cells assessed as inhibition of cell growth after 72 hrs by MTT-based assay; assay type: functional; conditions: A549, 72 h
[2] = tested on: MDA-MB-231; assay: cells; assay type: functional, cell-based; conditions: Homo sapiens, MDA-MB-231, 72 h
Description: Antiproliferative activity against human MDA-MB-231 cells assessed as inhibition of cell growth after 72 hrs by MTT-based assay

[3] = target: Histone deacetylase 2 (Homo sapiens, UniProt Q92769); assay: Inhibition of recombinant HDAC2 (unknown origin) using fluorogenic substrate Boc-Lys (acetyl)-AMC after 20 mins by homogeneous fluorescence release assay
[4] = target: Histone deacetylase 1 (Homo sapiens, UniProt Q13547); assay: Inhibition of recombinant HDAC1 (unknown origin) using fluorogenic substrate Boc-Lys (acetyl)-AMC after 20 mins by homogeneous fluorescence release assay
[5] = cells; assay type: functional, cell-based; conditions: Homo sapiens, U-937, 72 h
Description: Antiproliferative activity against human U937 cells assessed as inhibition of cell growth after 72 hrs by MTT-based assay

[6] = cells; assay type: functional, cell-based; conditions: Homo sapiens, HCT-116, 72 h
Description: Antiproliferative activity against human HCT116 cells assessed as inhibition of cell growth after 72 hrs by MTT-based assay

[7] = tested on: NCI-H661; assay: Antiproliferative activity against human NCI-H661 cells assessed as inhibition of cell growth after 72 hrs by MTT-based assay; assay type: functional; conditions: NCI-H661, 72 h
[8] = target: T1, Histone deacetylase 8 (Homo sapiens, UniProt Q9BY41); assay: Inhibition of recombinant HDAC8 (unknown origin) using fluorogenic substrate Boc-Lys (acetyl)-AMC after 20 mins by homogeneous fluorescence release assay
T1 sequence (Q9BY41 whole entry): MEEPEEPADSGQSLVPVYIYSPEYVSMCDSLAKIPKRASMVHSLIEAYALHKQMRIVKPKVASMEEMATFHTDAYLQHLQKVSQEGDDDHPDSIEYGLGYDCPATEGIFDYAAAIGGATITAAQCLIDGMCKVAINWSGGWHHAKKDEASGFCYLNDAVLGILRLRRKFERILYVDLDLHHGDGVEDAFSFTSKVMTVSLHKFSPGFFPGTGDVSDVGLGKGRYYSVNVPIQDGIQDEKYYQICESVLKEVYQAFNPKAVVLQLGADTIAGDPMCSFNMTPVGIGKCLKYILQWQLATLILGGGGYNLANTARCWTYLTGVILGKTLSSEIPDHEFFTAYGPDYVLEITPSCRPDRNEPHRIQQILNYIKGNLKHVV

Sequence of Histone deacetylase 1 (Q13547 whole entry): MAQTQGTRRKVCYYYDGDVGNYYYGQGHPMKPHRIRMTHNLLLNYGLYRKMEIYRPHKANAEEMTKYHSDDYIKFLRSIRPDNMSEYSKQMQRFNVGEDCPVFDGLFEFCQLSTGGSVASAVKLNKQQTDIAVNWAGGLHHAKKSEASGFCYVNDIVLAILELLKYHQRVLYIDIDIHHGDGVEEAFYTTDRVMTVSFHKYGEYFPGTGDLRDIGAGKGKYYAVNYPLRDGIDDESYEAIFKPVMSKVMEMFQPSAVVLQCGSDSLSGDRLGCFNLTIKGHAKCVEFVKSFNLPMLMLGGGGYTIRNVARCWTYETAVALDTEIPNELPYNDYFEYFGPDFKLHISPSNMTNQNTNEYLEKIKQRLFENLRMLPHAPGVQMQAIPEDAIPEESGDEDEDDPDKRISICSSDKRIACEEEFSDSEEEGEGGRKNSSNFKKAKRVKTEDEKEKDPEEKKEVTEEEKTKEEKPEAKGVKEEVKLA
Sequence of Histone deacetylase 2 (Q92769 whole entry): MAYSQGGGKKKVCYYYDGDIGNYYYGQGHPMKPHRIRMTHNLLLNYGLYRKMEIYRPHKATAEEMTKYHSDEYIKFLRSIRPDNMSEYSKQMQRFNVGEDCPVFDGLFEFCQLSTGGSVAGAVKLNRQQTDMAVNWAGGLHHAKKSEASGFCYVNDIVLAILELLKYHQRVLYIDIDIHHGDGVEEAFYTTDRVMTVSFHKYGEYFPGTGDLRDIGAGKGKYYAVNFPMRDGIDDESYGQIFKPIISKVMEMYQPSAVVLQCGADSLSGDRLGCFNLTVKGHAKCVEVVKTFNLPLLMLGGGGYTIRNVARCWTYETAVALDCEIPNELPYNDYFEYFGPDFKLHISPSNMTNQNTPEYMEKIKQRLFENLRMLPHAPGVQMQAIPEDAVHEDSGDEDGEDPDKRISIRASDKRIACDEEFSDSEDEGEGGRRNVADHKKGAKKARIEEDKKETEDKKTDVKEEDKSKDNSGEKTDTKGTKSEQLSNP

IC50 [1] [µM] | IC50 [2] [µM] | IC50 [3] [µM] | IC50 [4] [µM] | IC50 [5] [µM] | IC50 [6] [µM] | IC50 [7] [µM] | IC50 [8] [µM] | SMILES
9.81 | 5.81 | 0.56 | 0.21 | 0.97 | 6.55 | 7.39 | > 10 | Cc1ccc(-c2noc(CNCc3ccc(C(=O)Nc4ccccc4N)cc3)n2)cc1
13.5 | 5.12 | 0.43 | 0.09 | 0.43 | 6.81 | 8 | > 10 | Nc1ccccc1NC(=O)c1ccc(CNCc2nc(-c3ccc(Cl)cc3)no2)cc1
10.8 | 7.69 | 0.53 | 0.28 | 1.63 | 8.63 | 11.8 | > 10 | Nc1ccccc1NC(=O)c1ccc(CNCc2nc(-c3ccccc3)no2)cc1
 |  |  |  |  |  | 0.13 |  | O=C(CCCCCCC(=O)Nc1ccccc1)NO [VORINOSTAT]
5.41 | 4.63 |  |  | 0.55 | 0.78 | 2.19 |  | Nc1ccccc1NC(=O)c1ccc(CNC(=O)OCc2cccnc2)cc1 [ENTINOSTAT]
> 100 | 9.56 | 9.23 | 2.67 | 6.52 | 21.9 | > 100 | 0.38 | O=C(NO)c1ccc(CNCc2nc(-c3ccc([N+](=O)[O-])cc3)no2)cc1
7.92 | 3.57 | 0.32 | 0.07 | 0.38 | 1.23 | 3.33 | > 10 | Nc1ccccc1NC(=O)c1ccc(CNCc2nc(-c3ccccc3Cl)no2)cc1
> 100 | 12.3 | > 10 | 9.63 | 8.05 | 43.1 | > 100 | 1.36 | O=C(NO)c1ccc(CNCc2nc(-c3ccc(C(F)(F)F)cc3)no2)cc1
> 100 | 10.9 | 8.52 | 3.85 | 5.29 | 30.2 | > 100 | 0.35 | O=C(NO)c1ccc(CNCc2nc(-c3ccc(Cl)cc3)no2)cc1
> 100 | 8.93 | > 10 | 8.32 | 3.45 | 18.6 | > 100 | 0.86 | COc1ccc(-c2noc(CNCc3ccc(C(=O)NO)cc3)n2)cc1
> 100 | 10.3 | 4.39 | 3.85 | 5.96 | 27.2 | 35.8 | > 10 | Nc1ccccc1NC(=O)c1ccc(CNCc2nc(-c3cccs3)no2)cc1
> 100 | 21.2 | 8.37 | 5.26 | 11 | 43.6 | 100 | > 10 | Nc1ccccc1NC(=O)c1ccc(CNCc2nc(-c3cccnc3)no2)cc1
6.39 | 3.18 | 0.15 | 0.06 | 0.52 | 2.33 | 4.73 | > 10 | Nc1ccccc1NC(=O)c1ccc(CNCc2nc(-c3ccc([N+](=O)[O-])cc3)no2)cc1
7.95 | 5.53 | 0.29 | 0.18 | 1.09 | 4.37 | 5.77 | > 10 | COc1ccc(-c2noc(CNCc3ccc(C(=O)Nc4ccccc4N)cc3)n2)cc1
> 100 | 9.12 | 7.69 | 3.53 | 2.95 | 17.8 | > 100 | 0.23 | O=C(NO)c1ccc(CNCc2nc(-c3ccc(F)cc3)no2)cc1
10.7 | 2.95 | 0.28 | 0.11 | 1.25 | 3.51 | 4.36 | > 10 | Nc1ccccc1NC(=O)c1ccc(CNCc2nc(-c3ccc(F)cc3)no2)cc1
> 100 | 15.4 | > 10 | 6.86 | 7.83 | 27.8 | > 100 | 1.25 | Cc1ccc(-c2noc(CNCc3ccc(C(=O)NO)cc3)n2)cc1
> 100 | 14.7 | > 10 | 5.73 | 7.21 | 29.3 | > 100 | 0.2 | O=C(NO)c1ccc(CNCc2nc(-c3ccccc3)no2)cc1
100 | 6.87 | 5.93 | 2.75 | 2.58 | 19.7 | 23.5 | > 10 | Nc1ccccc1NC(=O)c1ccc(CNCc2nc(-c3ccc(C(F)(F)F)cc3)no2)cc1
> 100 | 23.9 | > 10 | > 10 | 10.7 | > 100 | > 100 | 8.26 | O=C(NO)c1ccc(CNCc2nc(-c3cccs3)no2)cc1
